# Target: human plasma kallikrein (Homo sapiens (Human), UniProt P03952)
# Assay: Plasma kallikrein activity assay (chromogenic substrate S2302)
# Type: biochemical
# Conditions: 2 nM kallikrein, 80 μM S2302, 30° C., pH 7.8; Ki by Cheng-Prusoff equation; values given as ranges; read-out: Ki
# Procedure: Plasma Kallikrein Activity Assay.
# The effect of compounds of the invention on human plasma kallikrein activity was determined using the chromogenic substrates (DiaPharma Group, Inc., West Chester, Ohio, USA). In these experiments, 2 nM kallikrein (Enzyme Research Laboratories, South Bend, Ind., USA) was incubated with 80 μM S2302 (H-D-Pro-Phe-Arg-p-nitroaniline) in the absence or presence of increasing concentrations of compounds of the invention in a final volume of 200 μL Tris-HCl buffer (200 mM NaCl; mM CaCl2; 50 mM Tris-HCl, pH 7.8).
# Data were analyzed using SigmaPlot software (Systat Software, Inc., San Jose, Calif., USA) (Four Parameter Logistic Curve).
# human plasma kallikrein, sequence (P03952 whole entry, looked up): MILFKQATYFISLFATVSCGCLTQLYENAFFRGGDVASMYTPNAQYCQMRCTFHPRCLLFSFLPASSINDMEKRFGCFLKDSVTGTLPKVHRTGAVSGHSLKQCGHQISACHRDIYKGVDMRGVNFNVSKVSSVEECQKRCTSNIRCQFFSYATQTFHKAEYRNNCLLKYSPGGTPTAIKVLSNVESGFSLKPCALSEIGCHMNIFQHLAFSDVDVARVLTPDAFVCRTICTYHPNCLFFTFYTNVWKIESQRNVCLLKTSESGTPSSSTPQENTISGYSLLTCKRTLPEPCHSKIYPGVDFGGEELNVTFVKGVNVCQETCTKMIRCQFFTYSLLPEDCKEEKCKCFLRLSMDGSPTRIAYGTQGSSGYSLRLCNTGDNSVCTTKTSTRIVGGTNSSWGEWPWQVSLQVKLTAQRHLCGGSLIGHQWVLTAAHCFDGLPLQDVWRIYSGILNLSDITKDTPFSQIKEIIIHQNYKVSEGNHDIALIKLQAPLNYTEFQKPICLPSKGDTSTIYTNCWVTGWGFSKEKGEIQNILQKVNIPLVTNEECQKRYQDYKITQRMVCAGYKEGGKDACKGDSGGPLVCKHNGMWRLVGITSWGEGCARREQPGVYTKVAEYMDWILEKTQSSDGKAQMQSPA
# human plasma kallikrein, sequence (P03952 whole entry partner, looked up): as the sequence (P03952 whole entry, looked up) above
row,SMILES,Ki [nM]
1,"NCc1cccc(-n2nc(C(F)(F)F)cc2C(=O)Nc2cccc(C(CCC3CC3)c3ccccc3)c2)c1 (centres unmarked) [78d, 1-(3-(aminomethyl)phenyl)-N-(3-(3-cyclopropyl-1-phenylpropyl)phenyl)-3-(trifluoromethyl)-1H-pyrazole-5-carboxamide]",0.1 to 50
2,"NCc1cccc(-n2nc(C(F)(F)F)cc2C(=O)Nc2cccc(C(NCC3CC3)c3cc(F)ccc3F)c2)c1 (centres unmarked) [197f, 1-(3-(aminomethyl)phenyl)-N-(3-(((cyclopropylmethyl)amino)(2,5-difluorophenyl)methyl)phenyl)-3-(trifluoromethyl)-1H-pyrazole-5-carboxamide]",0.1 to 50
3,"CCCN(c1ccccc1)c1cccc(NC(=O)c2cc(C(F)(F)F)nn2-c2cccc(CN)c2)c1 [27f, 1-(3-(aminomethyl)phenyl)-N-(3-(phenyl(propyl)amino)phenyl)-3-(trifluoromethyl)-1H-pyrazole-5-carboxamide]",50 to 100
4,"N=C(N)c1cccc(-n2nc(C(F)(F)F)cc2C(=O)Nc2cc(C(NCC3CC3)c3ccccc3)ccc2F)c1 (single isomer, unassigned; (-)) [227d, (−)-1-(3-carbamimidoylphenyl)-N-(5-((cyclopropylmethylamino)(phenyl)methyl)-2-fluorophenyl)-3-(trifluoromethyl)-1H-pyrazole-5-carboxamide]",0.1 to 50
5,"NCc1cccc(-n2nc(C(F)(F)F)cc2C(=O)Nc2cccc(C(NCC3CC3)c3ccc(O)cc3)c2)c1 (centres unmarked) [135c, 1-(3-(aminomethyl)phenyl)-N-(3-(((cyclopropylmethyl)amino)(4-hydroxyphenyl)methyl)phenyl)-3-(trifluoromethyl)-1H-pyrazole-5-carboxamide]",0.1 to 50
6,"NCc1cccc(-n2nc(C(F)(F)F)cc2C(=O)Nc2cc(C(N)(CCC3CC3)c3ccncc3)ccc2F)c1 (single isomer, unassigned; (+)) [216d, (+)-N-(5-(1-amino-3-cyclopropyl-1-(pyridin-4-yl)propyl)-2-fluorophenyl)-1-(3-(aminomethyl)phenyl)-3-(trifluoromethyl)-1H-pyrazole-5-carboxamide]",0.1 to 50
7,"Cc1cccc(C(NCC2CC2)c2cccc(NC(=O)c3cc(C(F)(F)F)nn3-c3cccc(CN)c3)c2)c1 (centres unmarked) [110f, 1-(3-(Aminomethyl)phenyl)-N-(3-((cyclopropylmethylamino)(m-tolyl)methyl)phenyl)-3-(trifluoromethyl)-1H-pyrazole-5-carboxamide]",0.1 to 50
8,"NCc1cccc(-n2nc(C(F)(F)F)cc2C(=O)Nc2cc(C(CCC3CC3)n3ccncc3=O)ccc2F)c1 (centres unmarked) [249b, 1-(3-(aminomethyl)phenyl)-N-(5-(3-cyclopropyl-1-(2-oxopyrazin-1(2H)-yl)propyl)-2-fluorophenyl)-3-(trifluoromethyl)-1H-pyrazole-5-carboxamide]",0.1 to 50
9,"NCc1cccc(-n2nc(C(F)(F)F)cc2C(=O)Nc2cccc(C(O)(CCC3CC3)c3ccccc3)c2)c1 (single isomer, unassigned; (-)) [46i, (−)-1-(3-(aminomethyl)phenyl)-N-(3-(3-cyclopropyl-1-hydroxy-1-phenylpropyl)phenyl)-3-(trifluoromethyl)-1H-pyrazole-5-carboxamide]",0.1 to 50
10,"NCc1cccc(-n2nc(C(F)(F)F)cc2C(=O)Nc2cccc(C(NCC3CC3)c3ccc(S(N)(=O)=O)cc3)c2)c1 (centres unmarked) [112g, 1-(3-(aminomethyl)phenyl)-N-(3-((cyclopropylmethylamino)(4-sulfamoylphenyl)methyl)phenyl)-3-(trifluoromethyl)-1H-pyrazole-5-carboxamide]",0.1 to 50
11,"NCc1cccc(-n2nc(C(F)(F)F)cc2C(=O)Nc2cc(C(NCC3CC3)c3cccnc3)ccc2F)c1 (centres unmarked) [94b, 1-(3-(aminomethyl)phenyl)-N-(5-((cyclopropylmethylamino)(pyridin-3-yl)methyl)-2-fluorophenyl)-3-(trifluoromethyl)-1H-pyrazole-5-carboxamide]",0.1 to 50
12,"NCc1cccc(-n2nc(C(F)(F)F)cc2C(=O)Nc2cccc(C(NCC3CC3)c3cccc(O)c3O)c2)c1 (centres unmarked) [150f, 1-(3-(aminomethyl)phenyl)-N-(3-((cyclopropylmethylamino)(2,3-dihydroxyphenyl)methyl)phenyl)-3-(trifluoromethyl)-1H-pyrazole-5-carboxamide]",0.1 to 50
13,"NCc1cccc(-n2nc(C(F)(F)F)cc2C(=O)Nc2cccc(C(NCC3CC3)c3ccc(Cl)cc3Cl)c2)c1 (centres unmarked) [200f, 1-(3-(aminomethyl)phenyl)-N-(3-((2,4-dichlorophenyl)((cyclopropylmethyl)amino)methyl)phenyl)-3-(trifluoromethyl)-1H-pyrazole-5-carboxamide]",0.1 to 50
14,"N#Cc1cccc(C(NCC2CC2)c2cccc(NC(=O)c3cc(C(F)(F)F)nn3-c3cccc(CN)c3)c2)c1 (centres unmarked) [152d, 1-(3-(aminomethyl)phenyl)-N-(3-((3-cyanophenyl)(cyclopropylmethylamino)methyl)phenyl)-3-(trifluoromethyl)-1H-pyrazole-5-carboxamide]",0.1 to 50
15,"NCc1cccc(-n2nc(C(F)(F)F)cc2C(=O)Nc2cccc(C(OCC3CC3)c3cccc(N)c3)c2)c1 (single isomer, unassigned; (-)) [64a, (−)-1-(3-(aminomethyl)phenyl)-N-(3-((3-aminophenyl)(cyclopropyl-methoxy)methyl)phenyl)-3-(trifluoromethyl)-1H-pyrazole-5-carboxamide]",0.1 to 50
16,"COc1cccc(C(NCC2CC2)c2cccc(NC(=O)c3cc(C(F)(F)F)nn3-c3cccc(CN)c3)c2)c1 (centres unmarked) [109f, 1-(3-(Aminomethyl)phenyl)-N-(3-((cyclopropylmethylamino)(3-methoxyphenyl)methyl)phenyl)-3-(trifluoromethyl)-1H-pyrazole-5-carboxamide]",0.1 to 50
17,"Cc1cc(C(=O)Nc2cccc(C(NCC3CC3)c3ccccc3)c2)n(-c2cccc(CN)c2)n1 (centres unmarked) [143l, 1-(3-(aminomethyl)phenyl)-N-(3-((cyclopropylmethylamino)(phenyl)methyl)phenyl)-3-methyl-1H-pyrazole-5-carboxamide]",0.1 to 50
18,"NCc1cccc(-n2nc(C(F)(F)F)cc2C(=O)Nc2cccc(C(O)(CCC3CC3)c3cccnc3)c2)c1 (racemic) [47f, 1-(3-(aminomethyl)phenyl)-N-(3-(3-cyclopropyl-1-hydroxy-1-(pyridin-3-yl)propyl)phenyl)-3-(trifluoromethyl)-1H-pyrazole-5-carboxamide]",0.1 to 50
19,"NCc1cccc(-n2nc(C(F)(F)F)cc2C(=O)Nc2cccc(C(O)c3ccccc3)c2F)c1 (centres unmarked) [35g, 1-(3-(aminomethyl)phenyl)-N-(2-fluoro-3-(hydroxy(phenyl)methyl)phenyl)-3-(trifluoromethyl)-1H-pyrazole-5-carboxamide]",50 to 100
20,"Nc1nccc2ccc(-n3nc(C(F)(F)F)cc3C(=O)Nc3cc(C(CCC4CC4)n4ccccc4=O)ccc3F)cc12 (centres unmarked) [258g, 1-(1-aminoisoquinolin-7-yl)-N-(5-(3-cyclopropyl-1-(2-oxopyridin-1(2H)-yl)propyl)-2-fluorophenyl)-3-(trifluoromethyl)-1H-pyrazole-5-carboxamide]",0.1 to 50
21,"Nc1nccc2ccc(-n3nc(C(F)(F)F)cc3C(=O)Nc3cc(C(N)(CCC4CC4)c4ccccc4)ccc3F)cc12 (single isomer, unassigned; (+)) [255a, (+)-N-(5-(1-amino-3-cyclopropyl-1-phenylpropyl)-2-fluorophenyl)-1-(1-aminoisoquinolin-7-yl)-3-(trifluoromethyl)-1H-pyrazole-5-carboxamide]",0.1 to 50
22,"NCc1cccc(-n2nc(C(F)(F)F)cc2C(=O)Nc2cccc(C(NCC3CC3)c3cccnc3)c2)c1 (centres unmarked) [79f, 1-(3-(Aminomethyl)phenyl)-N-(3-(((cyclopropylmethyl)amino)(pyridin-3-yl)methyl)phenyl)-3-(trifluoromethyl)-1H-pyrazole-5-carboxamide]",0.1 to 50
23,"CCC(CO)NC(c1ccccc1)c1cccc(NC(=O)c2cc(C(F)(F)F)nn2-c2cccc(CN)c2)c1 (centres unmarked) [168b, 1-(3-(Aminomethyl)phenyl)-N-(3-(((1-hydroxybutan-2-yl)amino)(phenyl)methyl)phenyl)-3-(trifluoromethyl)-1H-pyrazole-5-carboxamide]",0.1 to 50
24,"COc1ccc2cc(C(NCC3CC3)c3cccc(NC(=O)c4cc(C(F)(F)F)nn4-c4cccc(CN)c4)c3)ccc2c1 (centres unmarked) [134f, 1-(3-(aminomethyl)phenyl)-N-(3-((cyclopropylmethylamino)(6-methoxynaphthalen-2-yl)methyl)phenyl)-3-(trifluoromethyl)-1H-pyrazole-5-carboxamide]",0.1 to 50
25,"CCc1cccc(C(NCC2CC2)c2cccc(NC(=O)c3cc(C(F)(F)F)nn3-c3cccc(CN)c3)c2)c1 (centres unmarked) [116e, 1-(3-(aminomethyl)phenyl)-N-(3-((cyclopropylmethylamino)(3-ethylphenyl)methyl)phenyl)-3-(trifluoromethyl)-1H-pyrazole-5-carboxamide]",0.1 to 50
26,"N#Cc1ccc(C(N)(CCC2CC2)c2cccc(NC(=O)c3cc(C(F)(F)F)nn3-c3cccc(CN)c3)c2)cc1 (single isomer, unassigned; (+)) [218c, (+)-N-(3-(1-amino-1-(4-cyanophenyl)-3-cyclopropylpropyl)phenyl)-1-(3-(aminomethyl)phenyl)-3-(trifluoromethyl)-1H-pyrazole-5-carboxamide]",0.1 to 50
27,"NCc1cccc(-n2nc(C(F)(F)F)cc2C(=O)Nc2cccc(C(NCC3CC3)c3ccc(F)cc3F)c2)c1 (centres unmarked) [196f, 1-(3-(aminomethyl)phenyl)-N-(3-(((cyclopropylmethyl)amino)(2,4-difluorophenyl)methyl)phenyl)-3-(trifluoromethyl)-1H-pyrazole-5-carboxamide]",0.1 to 50
28,"NCc1cccc(-n2nc(C(F)(F)F)cc2C(=O)Nc2cc(C(CCC3CC3)N3CCCCC3=O)ccc2F)c1 (single isomer, unassigned; (+)) [261k, (+)-1-(3-(aminomethyl)phenyl)-N-(5-(3-cyclopropyl-1-(2-oxopiperidin-1-yl)propyl)-2-fluorophenyl)-3-(trifluoromethyl)-1H-pyrazole-5-carboxamide]",0.1 to 50
29,"NCc1cccc(-n2nc(C(F)(F)F)cc2C(=O)Nc2cccc(N(CCC3CC3)c3ccccc3)c2)c1 [87f, 1-(3-(aminomethyl)phenyl)-N-(3-((2-cyclopropylethyl)(phenyl)amino)phenyl)-3-(trifluoromethyl)-1H-pyrazole-5-carboxamide]",0.1 to 50
